Reference: article PMC7031696 (Cell chemical biology, 2019)
Where two headings read alike, the source gives them in different places.

How the values were obtained:
[1] = system: Plasmodium falciparum 3D7-A10 parasites; test: Stage specificity assay (8-h exposure of synchronized stages, IC50^8h); assay type: cell-based; conditions: for IC50: Plasmodium falciparum
[2] = system: asynchronous 3D7-A10 parasite cultures; test: Standard 72-h exposure asexual blood stage susceptibility assay (IC50^72h); assay type: cell-based, Plasmodium falciparum; conditions: Plasmodium falciparum, 3D7, 72 h, read-out: Overall (72hr assay) Mean IC50 (IC50^72h)
[3] = system: 3D7-MR4 trophozoite parasite-infected RBCs; test: Metabolomic profiling (hydrophilic metabolite changes, UHPLC-MS); assay type: cell-based, Plasmodium falciparum
[4] = system: 3D7-MR4 trophozoite parasite-infected RBCs; conditions: 10 × IC50^72h; ref Allman et al., 2016; cited from earlier work
[5] = system: 3D7-A10 or Dd2-B2 parasites; conditions: 3 × IC50^72h drug concentrations; ref Phillips et al., 2015; cited from earlier work

Cc1cc(Nc2ccc(S(F)(F)(F)(F)F)cc2)n2nc(C(C)(F)F)nc2n1 [DSM265, reference compound]
Ratio lowest IC50 8hr/IC50 72hr ([1]; 3D7-A10): 2.0 | overall activity profile (stages on which active) ([1]; 8-h exposures): activity against late trophozoites only | killing in stage specificity assay ([1]; 8-h exposures, survival curves): incomplete killing | IC50 ([1]; 3D7, read-out: Early rings Mean IC50, shift 2): 4820 nM | IC50 ([1]; 3D7, read-out: Early trophozoites Mean IC50, shift 1): 10.2 nM | IC50 ([1]; 3D7, read-out: Early trophozoites Mean IC50, shift 2): 1480 nM | IC50 ([1]; 3D7, read-out: Late rings Mean IC50, shift 2): 1490 nM | IC50 ([1]; 3D7, read-out: Late trophozoites Mean IC50, shift 1): 7.7 nM | IC50 ([1]; 3D7, read-out: Schizonts IC50, shift 2): > 25000 nM | IC50 ([1]; 3D7, read-out: Schizonts Mean IC50, shift 1): 19.2 nM | shape of survival curve ([1]; early trophozoite and schizont stages): biphasic survival curve | Stage of peak activity (Figure 6) ([1]; period when the parasite was most susceptible (lowest IC50^8h)): late trophozoite stages | Peak Activity (Table S1) ([1]; stage(s) with the lowest IC50^8h): Late Trophs | IC50 [2]: 3.8 nM | Log2(fold changes) 3-phosphoglycerate ([3]; metabolite 3-phosphoglycerate, log2 fold change): 0.0300 | Log2(fold changes) 4-Pyridoxic acid ([3]; metabolite 4-Pyridoxic acid, log2 fold change): -1.9900 | Log2(fold changes) 4-aminobutyrate ([3]; metabolite 4-aminobutyrate, log2 fold change): 0.1300 | Log2(fold changes) 4-phosphopantetheine ([3]; metabolite 4-phosphopantetheine, log2 fold change): 0.0000 | Log2(fold changes) 4-phosphopantothenate ([3]; metabolite 4-phosphopantothenate, log2 fold change): -0.1800 | Log2(fold changes) 5-aminopentanoic acid ([3]; metabolite 5-aminopentanoic acid, log2 fold change): 0.0000 | Log2(fold changes) 5-methyl-THF ([3]; metabolite 5-methyl-THF, log2 fold change): 0.0000 | Log2(fold changes) 5-phosphoribosyl-1-pyrophosphate ([3]; metabolite 5-phosphoribosyl-1-pyrophosphate, log2 fold change): -0.0200 | Log2(fold changes) 6-phospho-D-gluconate ([3]; metabolite 6-phospho-D-gluconate, log2 fold change): 0.2100 | Log2(fold change) HVDD ([3]; metabolite HVDD): 0.0000 | Log2(fold change) Hydroxyisocaproic acid ([3]; metabolite Hydroxyisocaproic acid): 0.0000 | Log2(fold change) IDP ([3]; metabolite IDP): 0.0000 | Log2(fold change) IMP ([3]; metabolite IMP): 0.1000 | Log2(fold change) Inositol ([3]; metabolite Inositol): 0.0000 | Log2(fold change) Isopentyl-PP ([3]; metabolite Isopentyl-PP): 0.0000 | Log2(fold change) L-arginino-succinate ([3]; metabolite L-arginino-succinate): 0.0000 | Log2(fold change) LD ([3]; metabolite LD): 0.0100 | Log2(fold change) Myristoyl/tetradecanoyl-CoA ([3]; metabolite Myristoyl/tetradecanoyl-CoA): 0.0000 | Log2(fold change) N-Acetyl-L-alanine ([3]; metabolite N-Acetyl-L-alanine): -0.3700 | Log2(fold change) N-acetyl-L-ornithine ([3]; metabolite N-acetyl-L-ornithine): -0.2000 | Log2(fold change) N-acetyl-glucosamine-1/6-phosphate ([3]; metabolite N-acetyl-glucosamine-1/6-phosphate): -0.7400 | Log2(fold change) N-acetyl-glutamate ([3]; metabolite N-acetyl-glutamate): 0.0900 | Log2(fold change) N-acetyl-glutamine ([3]; metabolite N-acetyl-glutamine): -0.1600 | Log2(fold change) N-carbamoyl-L-aspartate ([3]; metabolite N-carbamoyl-L-aspartate): 4.8500 | Log2(fold change) NAD+ ([3]; metabolite NAD+): 0.1500 | Log2(fold change) NADH ([3]; metabolite NADH): 0.7500 | Log2(fold change) NADP+ ([3]; metabolite NADP+): 0.0800 | Log2(fold change) NADPH ([3]; metabolite NADPH): 0.6400 | Log2(fold change) O-acetyl-L-serine ([3]; metabolite O-acetyl-L-serine): 0.0000 | Log2(fold change) Octoluse 8/1P ([3]; metabolite Octoluse 8/1P): 0.2400 | Log2(fold change) Octoluse Bisphosphate ([3]; metabolite Octoluse Bisphosphate): -0.2600 | Log2(fold change) PD ([3]; metabolite PD): -0.0800 | Log2(fold change) PE ([3]; metabolite PE): -0.3900 | Log2(fold change) PEE ([3]; metabolite PEE): -0.4300 | Log2(fold change) PEEK ([3]; metabolite PEEK): -0.3200 | Log2(fold change) PVNF ([3]; metabolite PVNF): -0.8600 | Log2(fold change) Pyroglutamic acid ([3]; metabolite Pyroglutamic acid): 0.0900 | Log2(fold change) Pyrophosphate ([3]; metabolite Pyrophosphate): 0.2500 | Log2(fold change) Ribose-5-phosphate ([3]; metabolite Ribose-5-phosphate): 0.0000 | Log2(fold change) S-adenosyl-L-homocysteine ([3]; metabolite S-adenosyl-L-homocysteine): -1.4900 | Log2(fold change) S-adenosyl-L-methioninamine ([3]; metabolite S-adenosyl-L-methioninamine): 0.0000 | Log2(fold change) S-adenosyl-L-methionine ([3]; metabolite S-adenosyl-L-methionine): 0.0000 | Log2(fold change) S-methyl-5'-thioadenosine ([3]; metabolite S-methyl-5'-thioadenosine): -0.0400 | Log2(fold change) SD ([3]; metabolite SD): -0.2500 | Log2(fold change) SDL ([3]; metabolite SDL): 0.0000 | Log2(fold change) SID ([3]; metabolite SID): 0.0000 | Log2(fold change) Sedoheptulose bisphosphate ([3]; metabolite Sedoheptulose bisphosphate): 0.0300 | Log2(fold change) Thiamine pyrophosphate ([3]; metabolite Thiamine pyrophosphate): 0.0000 | Log2(fold changes) UDP-D-glucose ([3]; metabolite UDP-D-glucose, log2 fold change): 0.0500 | Log2(fold changes) UDP-D-glucuronate ([3]; metabolite UDP-D-glucuronate, log2 fold change): 0.0200 | Log2(fold changes) UDP-N-acetyl-glucosamine ([3]; metabolite UDP-N-acetyl-glucosamine, log2 fold change): -0.1200 | Log2(fold changes) UDP ([3]; metabolite UDP, log2 fold change): -1.5400 | Log2(fold changes) UMP ([3]; metabolite UMP, log2 fold change): -0.9900 | Log2(fold changes) UTP ([3]; metabolite UTP, log2 fold change): -1.4400 | Log2(fold change) hydroxyphenylpyruvate ([3]; metabolite hydroxyphenylpyruvate): 0.0000 | Log2(fold change) hydroxyproline/Aminolevulinate ([3]; metabolite hydroxyproline/Aminolevulinate): 0.0000 | Log2(fold change) hypoxanthine ([3]; metabolite hypoxanthine): 0.3100 | Log2(fold change) indole ([3]; metabolite indole): 0.1900 | Log2(fold change) inosine ([3]; metabolite inosine): 0.2300 | Log2(fold change) isoleucine ([3]; metabolite isoleucine): 0.0000 | Log2(fold change) lactate ([3]; metabolite lactate): -0.1200 | Log2(fold change) leucine ([3]; metabolite leucine): 0.0000 | Log2(fold change) lysine ([3]; metabolite lysine): 0.0000 | Log2(fold change) malate ([3]; metabolite malate): -0.2600 | Log2(fold change) maleic acid ([3]; metabolite maleic acid): 0.0000 | Log2(fold change) methionine ([3]; metabolite methionine): 0.0000 | Log2(fold change) myo-inositol ([3]; metabolite myo-inositol): -0.8500 | Log2(fold change) nicotinamide mononucleotide ([3]; metabolite nicotinamide mononucleotide): 0.0000 | Log2(fold change) nicotinate ([3]; metabolite nicotinate): -0.0300 | Log2(fold change) ornithine ([3]; metabolite ornithine): -0.1100 | Log2(fold change) orotate ([3]; metabolite orotate): -0.2100 | Log2(fold change) orotidine-5'-phosphate ([3]; metabolite orotidine-5'-phosphate): 0.0000 | Log2(fold change) oxaloacetate ([3]; metabolite oxaloacetate): 0.0000 | Log2(fold change) p-aminobenzoate ([3]; metabolite p-aminobenzoate): 0.0000 | Log2(fold change) p-hydroxybenzoate ([3]; metabolite p-hydroxybenzoate): 0.2000 | Log2(fold change) pantothenate ([3]; metabolite pantothenate): 0.0000 | Log2(fold change) phenylalanine ([3]; metabolite phenylalanine): 0.0000 | Log2(fold change) phenylpyruvate ([3]; metabolite phenylpyruvate): 1.0600 | Log2(fold change) phosphoenolpyruvate ([3]; metabolite phosphoenolpyruvate): 0.0800 | Log2(fold change) prephenate ([3]; metabolite prephenate): 0.0000 | Log2(fold change) proline ([3]; metabolite proline): 0.0000 | Log2(fold change) pyridoxine ([3]; metabolite pyridoxine): 0.0000 | Log2(fold change) pyruvate ([3]; metabolite pyruvate): 0.0500 | Log2(fold change) riboflavin ([3]; metabolite riboflavin): 0.0000 | Log2(fold change) ribose ([3]; metabolite ribose): 0.0000 | Log2(fold change) ribose-phosphate ([3]; metabolite ribose-phosphate): 0.2500 | Log2(fold change) ribulose-5-phosphate ([3]; metabolite ribulose-5-phosphate): 0.0000 | Log2(fold change) serine ([3]; metabolite serine): 0.0000 | Log2(fold change) sn-glycerol-3-phosphate ([3]; metabolite sn-glycerol-3-phosphate): 0.1700 | Log2(fold change) succinate/Methylmalonic acid ([3]; metabolite succinate/Methylmalonic acid): -0.0400 | Log2(fold change) succinyl-CoA/methylmalonyl-CoA ([3]; metabolite succinyl-CoA/methylmalonyl-CoA): 0.0000 | Log2(fold change) taurine ([3]; metabolite taurine): 0.0000 | Log2(fold change) thiamine ([3]; metabolite thiamine): 0.0000 | Log2(fold change) threonine/homoserine ([3]; metabolite threonine/homoserine): 0.0000 | Log2(fold change) thymidine ([3]; metabolite thymidine): -0.5100 | Log2(fold changes) thymine ([3]; metabolite thymine, log2 fold change): -0.0500 | Log2(fold changes) trehalose-6-Phosphate ([3]; metabolite trehalose-6-Phosphate, log2 fold change): 0.0000 | Log2(fold changes) tryptophan ([3]; metabolite tryptophan, log2 fold change): 0.0000 | Log2(fold changes) tyrosine ([3]; metabolite tyrosine, log2 fold change): 0.0000 | Log2(fold changes) uridine ([3]; metabolite uridine, log2 fold change): -0.1000 | metabolic signature: increases in the pyrimidine precursors dihydroorotate and N-carbamoyl-L-aspartate (mETC disruption) [4]: observed | minimum inoculum for resistance [5]: 2 × 10^6 parasites
